Type in all cases: biochemical
In one test the target is T1, MMP-3 (Homo sapiens, UniProt P08254).
T1 construct: made in house; host or cells: CHO cells
Description: P218 quenched fluorescence assay (MMP Microfluorometric Profiling Assay), MMP-3. Particulars: P218 substrate 6 µM, 25 min at 37 °C, pH 6.5. The text has this: (§1) The P218 quenched fluorescence assay (Microfluorometric Profiling Assay) is a modification of that originally described by C. G. Knight et al., FEBS Letters, 296, 263-266 (1992) for a related substrate and a variety of matrix metalloproteinases (MMPs) in cuvettes. The assay was run with each exemplary compound of the invention and the three MMPs, MMP-3, MMP-9 and MMP-2, analyzed in parallel, adapted as follows for a 96-well microtitre plate and a Hamilton AT® workstation.
(§2) P218 is a synthetic substrate containing a 4-acetyl-7-methoxycoumarin (MCA) group in the N-terminal position and a 3-(2,4-dinitrophenyl)-(L)-2,3-diaminopropionyl (DPA) group internally. This is a modification of a peptide reported by Knight (1992) that was used as a substrate for matrix metalloproteinases. Once the P218 peptide is cleaved (putative clip site at the Ala-Leu bond), the fluorescence of the MCA group can be detected on a fluorometer with excitation at 328 nm and emission at 393 nm. P218 is currently being produced by BACHEM Bioscience, Inc. exclusively for the Bayer Corp. P218 has the structure: H-MCA-Pro-Lys-Pro-Leu-Ala-Leu-DPA-Ala-Arg-NH2 (MW 1332.2)
Recombinant Human CHO Pro-MMP-3: Human CHO pro-stromelysin-257 (pro-MMP-3) was expressed and purified as described by T. J. Housley et al., J. Biol. Chem., 268, 4481-4487 (1993).
Activation of Pro-MMP-3: Pro-MMP-3 at 1.72 µM (100 µg/mL) in an MMP-3 activation buffer consisting of 5 mM Tris at pH 7.5, 5 mM CaCl2, 25 mM NaCl, and 0.005% Brij-35 was activated by incubation with TPCK (N-tosyl-(L)-phenylalanine chloromethyl ketone) trypsin (1:100 w/w to pro-MMP-3) at 25 °C for 30 min. The reaction was stopped by addition of soybean trypsin inhibitor (SBTI; 5:1 w/w to trypsin concentration).
(§3) Hamilton Microlab AT Plus®: The MMP-profiling assay was performed robotically using a Hamilton MicroLab AT Plus®. The Hamilton was programmed to: (1) serially dilute up to 11 potential inhibitors automatically using a 2.5 mM stock solution of the inhibitor in 100% DMSO; (2) distribute substrate followed by inhibitor into a 96-well Cytofluor plate; and (3) add a single enzyme to the plate with mixing to start the reaction. Subsequent plates for each additional enzyme were prepared automatically by beginning the program at the substrate addition point, remixing the diluted inhibitors, and beginning the reaction by addition of enzyme. In this way, all MMP assays were done using the same inhibitor dilutions.
(§4) Millipore Cytofluor II: Following incubation, the plate was read on a Cytofluor II fluorometric plate reader with excitation at 340 nm and emission at 395 nm with the gain set at 80.
(§5) Microfluorometric Reaction Buffer (MRB): Dilutions of test compounds, enzymes and P218 substrate for the microfluorometric assay were made in microfluorometric reaction buffer (MRB) consisting of 50 mM 2-(N-morpholino)ethanesulfonic acid (MES) at pH 6.5 with 10 mM CaCl2, 150 mM NaCl, 0.005 % Brij-35 and 1% DMSO.
(§6) MMP Microfluorometric Profiling Assay. The assay was done with a final P218 concentration of 6 µM, approximately 0.5 to 0.8 nM of activated MMP (one MMP per 96-well plate), and with variable inhibitor concentrations. The Hamilton MicroLab AT Plus® was programmed to serially dilute up to 11 compounds from a 2.5 mM stock (100% DMSO) to 10-times the final compound concentrations in the assay. Initially, the instrument delivered various amounts of microfluorometric reaction buffer (MRB) to a 96-tube rack of 1 mL Marsh dilution tubes. The instrument picked up 20 µL inhibitor (2.5 mM) and mixed it with buffer in row A of the Marsh rack, resulting in a 50 µM inhibitor concentration. The inhibitors were then serially diluted to 10, 5, 1, 0.2, 0.05 and 0.01 µM. […] The instrument re-mixed and loaded 14.5 µL of diluted compound from rows A to G in the Marsh rack to the corresponding rows in the microtiter plate.

The next test addresses T2, MMP-9 (Homo sapiens, UniProt P14780).
T2 construct: made in house
Description: P218 quenched fluorescence assay (MMP Microfluorometric Profiling Assay), MMP-9. Particulars: P218 substrate 6 µM, 25 min at 37 °C, pH 6.5.
Text: as §1, §2
Human Recombinant Pro-MMP-9: Human recombinant pro-gelatinase B (pro-MMP-9) derived from U937 cDNA as described by S. M. Wilhelm et al., J. Biol. Chem., 264, 17213-17221 (1989) was expressed as the full-length form using a baculovirus protein expression system. The pro-enzyme was purified using methods previously described by M.S. Hibbs, et al., J. Biol. Chem., 260, 2493-500 (1984).
Activation of Pro-MMP-9 : Pro-MMP-9 (20 µg/mL) in an MMP-9 activation buffer consisting of 50 mM Tris at pH 7.4, 150 mM NaCl, 10 mM CaCl2 and 0.005% Brij-35 was activated by incubation with a 0.5 mM p-aminophenylmercuric acetate (APMA) for 3.5 h at 37 °C. The enzyme was dialyzed against the same buffer to remove APMA.
as §3, §4, §5
as §6, with “plate. […]” for “plate.”

The target in another test is T3, MMP-2 (Homo sapiens, UniProt P08253).
T3 sequence (P08253 110-660): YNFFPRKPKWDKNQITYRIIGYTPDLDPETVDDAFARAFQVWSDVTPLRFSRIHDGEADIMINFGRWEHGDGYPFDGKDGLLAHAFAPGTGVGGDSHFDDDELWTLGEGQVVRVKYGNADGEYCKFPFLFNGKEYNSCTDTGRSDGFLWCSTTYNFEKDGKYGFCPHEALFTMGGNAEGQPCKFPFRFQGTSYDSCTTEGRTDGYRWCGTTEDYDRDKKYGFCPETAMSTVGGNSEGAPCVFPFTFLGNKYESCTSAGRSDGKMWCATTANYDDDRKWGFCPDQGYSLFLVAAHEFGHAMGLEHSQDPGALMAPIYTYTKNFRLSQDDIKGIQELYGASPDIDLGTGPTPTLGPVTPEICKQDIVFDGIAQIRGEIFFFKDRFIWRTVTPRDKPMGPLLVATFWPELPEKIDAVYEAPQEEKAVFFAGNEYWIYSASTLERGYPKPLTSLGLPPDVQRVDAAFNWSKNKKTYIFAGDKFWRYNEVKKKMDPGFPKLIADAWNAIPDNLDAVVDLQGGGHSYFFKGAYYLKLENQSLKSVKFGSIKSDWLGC
Nature of the test: P218 quenched fluorescence assay (MMP Microfluorometric Profiling Assay), MMP-2.

Each structure is given as a SMILES string.

T1 sequence (P08254 100-477): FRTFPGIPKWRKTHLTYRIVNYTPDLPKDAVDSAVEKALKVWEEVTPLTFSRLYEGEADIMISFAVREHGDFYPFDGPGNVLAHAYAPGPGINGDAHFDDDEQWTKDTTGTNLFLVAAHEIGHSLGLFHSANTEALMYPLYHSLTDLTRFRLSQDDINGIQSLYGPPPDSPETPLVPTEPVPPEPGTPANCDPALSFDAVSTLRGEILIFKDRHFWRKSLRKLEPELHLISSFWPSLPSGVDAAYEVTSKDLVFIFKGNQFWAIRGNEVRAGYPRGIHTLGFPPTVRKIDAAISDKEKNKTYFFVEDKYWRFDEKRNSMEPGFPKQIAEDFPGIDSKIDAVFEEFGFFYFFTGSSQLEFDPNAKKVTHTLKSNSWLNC
T2 sequence (P14780 107-707 limits assumed): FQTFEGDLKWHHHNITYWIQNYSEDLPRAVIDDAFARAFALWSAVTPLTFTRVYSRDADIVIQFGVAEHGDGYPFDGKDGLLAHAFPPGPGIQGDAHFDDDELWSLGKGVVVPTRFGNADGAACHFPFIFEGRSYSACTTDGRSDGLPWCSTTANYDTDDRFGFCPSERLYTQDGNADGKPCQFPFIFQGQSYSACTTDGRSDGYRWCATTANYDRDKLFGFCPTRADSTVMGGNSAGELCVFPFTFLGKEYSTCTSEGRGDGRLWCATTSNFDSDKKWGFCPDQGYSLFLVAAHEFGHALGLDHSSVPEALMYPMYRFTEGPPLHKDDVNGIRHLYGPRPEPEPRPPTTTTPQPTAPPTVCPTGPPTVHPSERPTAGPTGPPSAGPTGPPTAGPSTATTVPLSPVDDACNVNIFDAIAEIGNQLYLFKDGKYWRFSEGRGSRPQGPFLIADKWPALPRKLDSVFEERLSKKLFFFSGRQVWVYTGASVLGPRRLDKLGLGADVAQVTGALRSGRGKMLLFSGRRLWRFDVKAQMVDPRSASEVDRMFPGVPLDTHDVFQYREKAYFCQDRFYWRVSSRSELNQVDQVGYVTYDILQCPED

On to `O=C(CC(CCN1C(=O)c2ccccc2C1=O)C(=O)O)c1ccc(C#CCCCCO)cc1` (stereo not drawn) [Example 5, 4-(4-(6-hydroxyhex-1-ynyl)phenyl)-4-oxo-2-(2-phthalimidoethyl)butyric acid], for which the IC50 was determined as 870 nM against MMP-3, 150 nM against MMP-9 and 92 nM at MMP-2.

In general, IC50 refers to the midpoint of a concentration-inhibition curve. Higher therefore signals lower potency.

Source of the values: patent EP0923529B1 (Bayer Corporation, priority 1996, dated 1997).
